The subject of assay [1] is AGS (stomach cancer). The experiment in a line: MTT assay, AGS cells. The assay is classed as cell-based, human. Conditions: 72 h. The procedure: (§1) In order to evaluate the anticancer activity of aristoloxazine isolated in Example 1, the cytotoxic activity against 14 human cancer cell lines including SKMEL5 (melanoma), A431 (non-melanoma skin), PC3 (prostate), A549 (lung), HT1080 (fibrosarcoma), OVCAR3 (ovary), HCT116 (colon), AGS (stomach), HepG2 (liver), MCF7 (breast cancer), K562 (leukemia), U-87 (glioma), ACHN (renal adenocarcinoma) and Caki (clear cell kidney cancer) was evaluated.
(§2) Cells were seeded (1 to 2.5×10^3 cells per well) in 96-well plates and then allowed to settle overnight. Next, the cells were treated with different doses of the compound for 24 hours, 48 hours or 72 hours in a 37° C. CO2 incubator, and 20 μL of MTT ((4,5-dimethylthiazol-2-yl)-2,5-diphenyltetrazolium bromide reagent (Sigma-Aldrich, Inc., St. Louis, MO, USA) was added to each well. After 1 to 2 hours, the medium was discarded, and 100 μL of DMSO (dimethyl sulfoxide, VWR Life Science, Ohio, USA) was added, and then, absorbance was measured at 570 nm by using a Multiskan Skyhigh microplate spectrophotometer (Thermo Scientific, Singapore). 5-FU was used as a positive control. The extract in Table 2 was a 70% ethanol Asarum heterotropoides root extract obtained in the process of preparing the Asarum heterotropoides root fraction of Example 1-2.
(Formazan colour is commonly taken as a measure of viable cells.)

The test system of assay [2] is A549 (lung cancer). The experiment in a line: MTT assay, A549 cells. Conditions: A549, 72 h. It counts as cell-based, human. The method, then:
as §1, §2

Assay [3] concerns Caki (clear cell kidney cancer). The experiment in a line: MTT assay, Caki cells. The assay is classed as cell-based, human. Conditions: 72 h. The procedure: as §1, §2
Assay [4] concerns A431 (non-melanoma skin cancer). Nature of the assay: MTT assay, A431 cells. The assay is classed as cell-based, human. The procedure:
as §1, §2

Assay [5] concerns PC3 (prostate cancer). Nature of the assay: MTT assay, PC3 cells. The assay is classed as cell-based. Particulars: Homo sapiens, PC-3, PC3, 72 h. The procedure: as §1, §2
Assay [6] concerns HCT116 (colon cancer). The experiment in a line: MTT assay, HCT116 cells. It counts as cell-based, human. The method, then:
as §1, §2

Assay [7] relates to ACHN (renal adenocarcinoma). Nature of the assay: MTT assay, ACHN cells. Particulars: 72 h. It counts as cell-based, human. The method, then:
as §1, §2

Assay [8] has as its system 14 human cancer cell lines. Nature of the assay: MTT assay, panel of all cancer cell lines tested. The assay is classed as cell-based. Conditions: span over all cancer cell lines tested, read-out: IC50 values, cytotoxicity against all cells that were tested. The procedure:
as §1, §2

In assay [9] the test system is OVCAR3 (ovarian cancer). The experiment in a line: MTT assay, OVCAR3 cells. It counts as cell-based. Conditions: Homo sapiens, OVCAR-3, OVCAR3, 72 h. The method, then:
as §1, §2

The test system of assay [10] is K562 (leukemia). The experiment in a line: MTT assay, K562 cells. The assay is classed as cell-based, human. Conditions: K562, 72 h. The procedure: as §1, §2
Assay [11] has as its system U-87 (glioma). Nature of the assay: MTT assay, U-87 cells. The assay is classed as cell-based, human. Particulars: U-87, 72 h. The method, then: as §1, §2
Assay [12] has as its system HT1080 (fibrosarcoma). The experiment in a line: MTT assay, HT1080 cells. It counts as cell-based, human. The procedure: as §1, §2
Assay [13] relates to MCF7 (breast cancer). Nature of the assay: MTT assay, MCF7 cells. The assay is classed as cell-based. Particulars: Homo sapiens, MCF7, 72 h. The procedure:
as §1, §2

Assay [14] relates to HepG2 (liver cancer). Nature of the assay: MTT assay, HepG2 cells. The assay is classed as cell-based. Particulars: Homo sapiens, HepG2, 72 h. The method, then:
as §1, §2

Assay [15] relates to SKMEL5 (melanoma). The experiment in a line: MTT assay, SKMEL5 cells. It counts as cell-based, human. The method, then:
as §1, §2

From patent US20250059203A1, “USE OF ARISTOLOXAZINE C HAVING ANTICANCER ACTIVITY” (KOREA INSTITUTE OF ORIENTAL MEDICINE, priority 2021, published 2025) come the findings set out here.

By IC50 is commonly meant the concentration needed to halve the response being measured. As to `COc1cccc2c1[C@H](SCC(N)=O)c1noc(=O)c3cc4c(c-2c13)OCO4` [Aristoloxazine C], the IC50 came out at 22.1 ± 0.8 nM in [1] (Homo sapiens); 25.7 ± 0.7 nM in assay [2] (Homo sapiens); 65.4 ± 2.9 nM in assay [3] (Homo sapiens); 85.7 ± 2.5 nM in assay [4] (Homo sapiens, A-431, A431, 72 h); 84.3 ± 2 nM in [5]; 29.3 ± 0.2 nM in assay [6] (Homo sapiens, HCT-116, HCT116, 72 h). The IC50 in assay [7] (Homo sapiens) was 17.8 ± 0.1 nM; in assay [8], 17.8 to 374 nM; in assay [9], 374 ± 12 nM; in assay [10] (Homo sapiens) it was 78.6 ± 2 nM; in assay [11] (Homo sapiens, U-87 MG), 57.8 ± 5.5 nM; in [12] (Homo sapiens, HT-1080, HT1080, 72 h) it was 143 ± 2.3 nM. Further, the concentration for half-maximal inhibition (IC50) in assay [13] was determined as 46.4 ± 2 nM; in assay [14] it was 149.2 ± 0.7 nM; in assay [15] (Homo sapiens, SK-MEL-5, SKMEL5, 72 h), 72.1 ± 0.4 nM.
In the case of `O=c1[nH]cc(F)c(=O)[nH]1` [Compound 5-FU, 5-FU, reference compound], the IC50 in [1] amounted to 3200 ± 100 nM; in assay [2], 2400 ± 100 nM; in assay [3], 9900 ± 200 nM; in assay [4] (A431, 72 h) it was 1000 ± 30 nM; in assay [6] (HCT116, 72 h), 3500 ± 100 nM; in assay [7], 9100 ± 2900 nM. Further, the IC50 stood at 6700 ± 200 nM in assay [10]; 9000 ± 200 nM in [11]; 4900 ± 100 nM in assay [12] (HT1080, 72 h); 8400 ± 700 nM in assay [15] (SKMEL5, 72 h).
